Consider two compounds from patent publication US10947233B2, “Crystals of azabicyclic compound” (TAIHO PHARMACEUTICAL CO., LTD., priority 2015, dated 2021).

Molecules are shown by their SMILES.

The nature of data set [1]: Solid stability test (accelerated test), related substances by HPLC. It counts as physicochemical. The procedure:
The solid stability of the Form II crystal obtained in Example 1 after storage of 1, 3 and 6 months at 40° C.±2° C./75% RH±5% RH was measured under the following conditions. • Storage conditions: 40° C.±2° C./75% RH±5% RH • Measurement points: 1, 3 and 6 month • Storage amount: 6 g • Storage container: doubled plastic bags, banding bands+plastic drums • Preparation method of sample solution: 100 mg of the Form II crystal is accurately measured, a mixed solution of acetonitrile-water (4:1) is added to dissolve the crystal (sonicated to dissolve, if difficult to dissolve), and the solution is diluted in measuring cylinder to exact 200 mL total. 10 mL of this solution is accurately measured, and a mixed solution of acetonitrile-water (1:1) is added to exact 20 mL to be used as a sample solution.
HPLC was performed in the following conditions. • Column: general foundation Chemicals Evaluation and Research Institute, Japan L-column2 ODS • Particle size: 3 μm, Inner diameter: 4.6 mm, Length: 15 cm • Measurement wavelength: 220 nm • Mobile phase: Mobile phase A: 10 mmol/L phosphate buffer (pH6.9), • Mobile phase B: acetonitrile • Flow rate: about 1.0 mL/min
The concentration gradient is controlled by changing the mixing ratio of mobile phases A and B as follows, when feeding the liquid.
The amounts of related substances in the sample solutions were measured and evaluated by HPLC, of which result is shown in Table 3.
The related substances are defined as substances detected other than 3-ethyl-4-{3-isopropyl-4-(4-(1-methyl-1H-pyrazol-4-yl)-1H-imidazol-1-yl)-1H-pyrazolo[3,4-b]pyridin-1-yl}benzamide.

Data set [2] in a line: Blood concentration measurement test (oral administration to mice). In kind it is in vivo, mice (Balb/cA). Conditions: 50 mg/10 mL/kg; for AUC0-24 hr: mice (Balb/cA) under feeding conditions, Compound 1 in plasma, LC-MS/MS. As to the method:
Respective solutions for administration (50 mg/10 mL/kg) of the Form I crystal and Form II crystal were produced. These solutions were administered orally to mice (Balb/cA) bred under feeding conditions at a volume of 10 mL/kg body weight using a sonde for oral administration. After the administration, the mice were returned to cages for mice to inspect their conditions. Water and feed were freely available for the mice in the cages. The mice were anesthetized with isoflurane 1, 2, 3, 4, 8 and 24 hours after the administration and 60 μL of blood was collected from their orbital sinuses using capillary blood collection tubes. The collected blood was cooled on ice and centrifuged to separate plasma.
AUCs0-24 hrwere calculated with a linear-log trapezoid method using Phoenix WinNonlin (v6.3.0), software from Pharsight, from the concentrations of Compound 1 in plasma samples measured with Multiple Reaction Monitoring method using LC-MS/MS.
Therefore, the Form II crystal according to the present invention is remarkably excellent in oral absorbability and useful as an oral pharmaceutical composition.

Turning to `CCc1cc(C(N)=O)ccc1-n1nc(C(C)C)c2c(-n3cnc(-c4cnn(C)c4)c3)ccnc21` [Form II crystal, 3-ethyl-4-{3-isopropyl-4-(4-(1-methyl-1H-pyrazol-4-yl)-1H-imidazol-1-yl)-1H-pyrazolo[3,4-b]pyridin-1-yl}benzamide], the Related substances result in data set [1] (storage 1 month at 40° C.±2° C./75% RH±5% RH), in data set [1] (storage 3 months at 40° C.±2° C./75% RH±5% RH) and in data set [1] (storage 6 months at 40° C.±2° C./75% RH±5% RH) was “less than 0.1%” each time. For the same compound, the “AUC0-24 hr of the Form II crystal relative to the Form I crystal” value in data set [2] (mice (Balb/cA)) is given as “approximately 3 times”. Moreover, the AUC0-24 hr in data set [2] was determined as 171.33 µM·h.

For `CCc1cc(C(N)=O)ccc1-n1nc(C(C)C)c2c(-n3cnc(-c4cnn(C)c4)c3)ccnc21` [Form I crystal, 3-ethyl-4-{3-isopropyl-4-(4-(1-methyl-1H-pyrazol-4-yl)-1H-imidazol-1-yl)-1H-pyrazolo[3,4-b]pyridin-1-yl}benzamide], the AUC0-24 hr in data set [2] was found to be 59.64 µM·h.
